Reference: ChEMBL document CHEMBL5380807, “Imidazo[1,2-a]Pyridine Derivatives as Novel Dual-Target Inhibitors of ABCB1 and ABCG2 for Reversing Multidrug Resistance” (J Med Chem, 2023)
Activity calls are given as the source filed them. No cut-off for these calls is given here.

Experiments:
[1] = Cytotoxicity against human K562 cells assessed as decrease in cell survival rate incubated for 72 hrs by MTS assay; type: toxicity, cell-based
[2] = Cytotoxicity against human K562/A02 cells overexpressing ABCB1 assessed as decrease in cell survival rate incubated for 72 hrs by MTS assay; type: toxicity, cell-based
K562 [3] = assay: Reversal of ABCB1 mediated adriamycin resistance in human K562 assessed as decrease in survival rate at 1.25 to 5 uM preincubated for 1 hrs followed by adriamycin addition and measured after 72 hrs by MTS assay; type: functional, cell-based; details: dose 1.25-5 µM, time 73.0 hrs
K562/A02 [4] = assay: Reversal of ABCB1 mediated adriamycin resistance in human K562/A02 overexpressing ABCB1 assessed as decrease in survival rate at 1.25 to 5 uM preincubated for 1 hrs followed by adriamycin addition and measured after 72 hrs by MTS assay; type: functional, cell-based; details: dose 1.25-5 µM, time 73.0 hrs
K562/A02 [5] = assay: Reversal of ABCB1 mediated adriamycin resistance in human K562/A02 cells overexpressing ABCB1 assessed as reduction in survival rate at 1 uM preincubated for 1 hrs followed by adriamycin addition and measured after 72 hrs by MTS assay; type: functional; details: time 73.0 hrs
K562 [6] = assay: Cytotoxicity against human K562 cells assessed as decrease in cell survival rate at 5 uM incubated for 72 hrs by MTS assay; type: toxicity, cell-based; details: k562, 72 h
K562 [7] = assay: Reversal of ABCB1 mediated adriamycin resistance in human K562 cells assessed as reduction in survival rate at 1 uM preincubated for 1 hrs followed by adriamycin addition and measured after 72 hrs by MTS assay; type: functional, cell-based; details: time 73.0 hrs
K562 [8] = assay: Reversal of ABCB1 mediated adriamycin resistance in human K562 cells assessed as reduction in survival rate at 5 uM preincubated for 1 hrs followed by adriamycin addition and measured after 72 hrs by MTS assay; type: functional, cell-based; details: time 73.0 hrs
K562/A02 [9] = assay: Cytotoxicity against human K562/A02 cells overexpressing ABCB1 assessed as decrease in cell survival rate at 5 uM incubated for 72 hrs by MTS assay; type: toxicity, cell-based; details: k562/a02, 72 h
K562/A02 [10] = assay: Reversal of ABCB1 mediated adriamycin resistance in human K562/A02 cells overexpressing ABCB1 assessed as reduction in survival rate at 5 uM preincubated for 1 hrs followed by adriamycin addition and measured after 72 hrs by MTS assay; type: functional; details: time 73.0 hrs

For O=C(/C=C/c1ccc([N+](=O)[O-])cc1)Nc1ccc(-c2nc3ccccn3c2CN2CCN(c3ccccc3)CC2)cc1, which IC50 at 72 h [1] is on record?
The IC50 at 72 h was 10.7 µM.

What about the IC50 at 72 h [2] of the same compound?
Its IC50 at 72 h is 48.7 µM.

Which Activity (K562 [3]) does the source give for COc1cc(/C=C/C(=O)Nc2ccc(-c3nc4ccccn4c3CN3CCN(c4ccccc4)CC3)cc2)cc(OC)c1OC here?
The Activity was “inactive”.

And the IC50 at 72 h [1]?
Its IC50 at 72 h is greater than 100 µM.

And the Activity (K562/A02 [4])?
Its Activity is “Active”.

And the IC50 at 72 h [2]?
The IC50 at 72 h was greater than 100 µM.

With COc1cccc(OCC(=O)Nc2ccc(-c3nc4ccccn4c3CN3CCc4cc(OC)c(OC)cc4C3)cc2)c1 as the compound, how does the IC50 at 72 h [1] read?
The IC50 at 72 h was greater than 100 µM.

What about the IC50 at 72 h [2] of the same compound?
The IC50 at 72 h was greater than 100 µM.

Which results are given for COc1cc2c(cc1OC)CN(Cc1c(-c3ccc(NC(=O)CN4CCN(C)CC4)cc3)nc3ccccn13)CC2?
IC50 at 72 h [1]: 50.7 µM; IC50 at 72 h [2]: > 100 µM

What does the source list for CN1CCN(CC(=O)Nc2ccc(-c3nc4ccccn4c3CN3CCN(c4ccccc4)CC3)cc2)CC1?
IC50 at 72 h [1]: 21.4 µM; IC50 at 72 h [2]: 54.6 µM

Which IC50 at 72 h [1] does the source give for O=C(Cn1cnnc1)Nc1ccc(-c2nc3ccccn3c2CN2CCN(c3ccccc3)CC2)cc1 here?
The IC50 at 72 h was greater than 100 µM.

And the IC50 at 72 h [2]?
The IC50 at 72 h was greater than 100 µM.

Which results are given for O=C(/C=C/c1ccc(F)cc1)Nc1ccc(-c2nc3ccccn3c2CN2CCN(c3ccccc3)CC2)cc1?
Activity (K562 [3]): inactive; IC50 at 72 h [1]: > 100 µM; Activity (K562/A02 [4]): Active; IC50 at 72 h [2]: > 100 µM

With COc1cc2c(cc1OC)CN(Cc1c(-c3ccc(NC(=O)COc4ccccc4C)cc3)nc3ccccn13)CC2 as the compound, how does the Activity (K562 [3]) read?
The Activity was “inactive”.

And the IC50 at 72 h [1]?
The IC50 at 72 h was greater than 100 µM.

What about the Activity (K562/A02 [4]) of the same compound?
The Activity was “Active”.

And the IC50 at 72 h [2]?
Its IC50 at 72 h is greater than 100 µM.

Which Activity (K562 [3]) does the source give for COc1cc2c(cc1OC)CN(CCC(=O)Nc1ccc(-c3nc4ccccn4c3CN3CCN(c4ccccc4)CC3)cc1)CC2 here?
The Activity was “Active”.

What about the IC50 at 72 h [1] of the same compound?
The IC50 at 72 h was 3.31 µM.

What about the Activity (K562/A02 [4]) of the same compound?
The Activity was “Active”.

What about the IC50 at 72 h [2] of the same compound?
Its IC50 at 72 h is 13.6 µM.

Which results are given for O=C1CCN1c1ccc(-c2nc3ccccn3c2CN2CCN(c3ccccc3)CC2)cc1?
IC50 at 72 h [1]: 10.5 µM; IC50 at 72 h [2]: 45.5 µM

What does the source list for COc1cc2c(cc1OC)CN(Cc1c(-c3ccc(NC(=O)COc4ccc(OC(F)(F)F)cc4)cc3)nc3ccccn13)CC2?
IC50 at 72 h [1]: 29.9 µM; IC50 at 72 h [2]: 40.9 µM

For C=CCc1ccc(OCC(=O)Nc2ccc(-c3nc4ccccn4c3CN3CCc4cc(OC)c(OC)cc4C3)cc2)c(OC)c1, which IC50 at 72 h [1] is on record?
The IC50 at 72 h was greater than 100 µM.

What about the IC50 at 72 h [2] of the same compound?
Its IC50 at 72 h is greater than 100 µM.

What does the source list for COc1cc2c(cc1OC)CN(Cc1c(-c3ccc(NC(=O)COc4ccccc4)cc3)nc3ccccn13)CC2?
Activity (K562 [3]): inactive; IC50 at 72 h [1]: > 100 µM; Activity (K562/A02 [4]): Active; IC50 at 72 h [2]: > 100 µM

Which results are given for CCN(CC)Cc1c(-c2ccc(NC(=O)CN3CCc4cc(OC)c(OC)cc4C3)cc2)nc2ccccn12?
Activity (K562/A02 [5]): Active; Activity (K562 [6]): Non-Toxic; Activity (K562 [7]): inactive; Activity (K562 [8]): inactive; Activity (K562/A02 [9]): Non-Toxic; Activity (K562/A02 [10]): Active

Which Activity (K562 [3]) does the source give for COc1cc2c(cc1OC)CN(Cc1c(-c3ccc(NC(=O)COc4ccc(Cl)cc4)cc3)nc3ccccn13)CC2 here?
The Activity was “inactive”.

What about the IC50 at 72 h [1] of the same compound?
The IC50 at 72 h was greater than 100 µM.

And the Activity (K562/A02 [4])?
Its Activity is “Active”.

What about the IC50 at 72 h [2] of the same compound?
The IC50 at 72 h was 83 µM.

What does the source list for COc1cc2c(cc1OC)CN(CC(=O)Nc1ccc(-c3nc4ccccn4c3COCc3ccccc3)cc1)CC2?
Activity (K562/A02 [5]): Active; Activity (K562 [6]): Non-Toxic; Activity (K562 [7]): inactive; Activity (K562 [8]): inactive; Activity (K562/A02 [9]): Non-Toxic; Activity (K562/A02 [10]): Active

For O=C(CCn1cnnc1)Nc1ccc(-c2nc3ccccn3c2CN2CCN(c3ccccc3)CC2)cc1, which IC50 at 72 h [1] is on record?
The IC50 at 72 h was greater than 100 µM.

What about the IC50 at 72 h [2] of the same compound?
The IC50 at 72 h was greater than 100 µM.

For COc1cc2c(cc1OC)CN(CC(=O)Nc1ccc(-c3nc4ccccn4c3CN3CCCC3)cc1)CC2, which Activity (K562/A02 [5]) is on record?
The Activity was “Active”.

And the Activity (K562 [6])?
Its Activity is “Non-Toxic”.

And the Activity (K562 [7])?
Its Activity is “inactive”.

And the Activity (K562 [8])?
Its Activity is “inactive”.

What about the Activity (K562/A02 [9]) of the same compound?
The Activity was “Non-Toxic”.

What about the Activity (K562/A02 [10]) of the same compound?
The Activity was “Active”.

With COc1cc2c(cc1OC)CN(CC(=O)Nc1ccc(-c3nc4ccccn4c3CN3CCOCC3)cc1)CC2 as the compound, how does the Activity (K562/A02 [5]) read?
The Activity was “Active”.

And the Activity (K562 [6])?
Its Activity is “Non-Toxic”.

And the Activity (K562 [7])?
Its Activity is “Active”.

What about the Activity (K562 [8]) of the same compound?
Its Activity is “Active”.

And the Activity (K562/A02 [9])?
The Activity was “Non-Toxic”.

What about the Activity (K562/A02 [10]) of the same compound?
Its Activity is “Active”.

With COc1cc2c(cc1OC)CN(CC(=O)Nc1ccc(-c3nc4ccccn4c3COCc3ccccc3Cl)cc1)CC2 as the compound, how does the Activity (K562/A02 [5]) read?
Its Activity is “Active”.

What about the Activity (K562 [6]) of the same compound?
Its Activity is “Non-Toxic”.

What about the Activity (K562 [7]) of the same compound?
Its Activity is “inactive”.

What about the Activity (K562 [8]) of the same compound?
The Activity was “inactive”.

And the Activity (K562/A02 [9])?
Its Activity is “Non-Toxic”.

And the Activity (K562/A02 [10])?
The Activity was “Active”.

Which IC50 at 72 h [1] does the source give for COc1cc2c(cc1OC)CN(Cc1c(-c3ccc(NC(=O)CN(C)C)cc3)nc3ccccn13)CC2 here?
Its IC50 at 72 h is greater than 100 µM.

And the IC50 at 72 h [2]?
The IC50 at 72 h was greater than 100 µM.

For O=C(CN1CCOCC1)Nc1ccc(-c2nc3ccccn3c2CN2CCN(c3ccccc3)CC2)cc1, which IC50 at 72 h [1] is on record?
The IC50 at 72 h was greater than 100 µM.

And the IC50 at 72 h [2]?
The IC50 at 72 h was greater than 100 µM.

What does the source list for COc1ccc(OCC(=O)Nc2ccc(-c3nc4ccccn4c3CN3CCc4cc(OC)c(OC)cc4C3)cc2)cc1?
IC50 at 72 h [1]: > 100 µM; IC50 at 72 h [2]: > 100 µM
